Source: publication PMC10224335, “Purification, Identification, and Inhibitory Mechanisms of a Novel ACE Inhibitory Peptide from Torreya grandis” (Nutrients, 2023)
Read-outs that look alike come from different tables or passages of the source. Peptide text beside a SMILES is read from it.

Assays:
[1] = tested on: cells; conditions: treatment with 25–100 µg/mL; cited from earlier work
Description: NO is a messenger molecular medium that provides multiple functions in biological tissues. Previous studies have shown that the production of NO is one of the potential mechanisms for the prevention and treatment of hypertension. Inhibiting ACE can prevent vasodilator breakdown and directly stimulate endothelial cells to produce NO [16]. We cultured EA.hy926 cells in the medium and evaluated the intracellular NO in order to see how VW-7 affected the generation of NO in these cells.

[2] = tested on: ACE; conditions: cited from earlier work; for IC50: read-out: IC50 of ACE inhibition
Description: The ACE inhibitory activity of the remaining peptides was low, and the inhibition rate was below 20%. Here, we measured the I ... || Based on the Lineweaver–Burk plot analysis, the inhibitory mechanism of VW-7 on ACE was investigated. According to Table 3, the Vmax value decreased and the Km value increased as the peptide concentration increased. […] When the peptide binds to ...

[3] = Cell viability, CCK-8; type: cell-based, Human; conditions: human, EA.hy926 cells
Protocol: (§1) Human umbilical vein endothelial cells (EA.hy926) were grown in DMEM with 10% FBS and 1% penicillin-streptomycin at 37 °C in a humidified environment of 5% CO2.
(§2) Using a cell counting kit-8 (CCK-8) kit, the cytotoxicity of the peptide VNDYLNW in EA.hy926 was assessed. In 96-well cell culture plates, cells were inoculated at a density of 5 × 10^3/well. After 24 h of pre-incubation at 37 ℃ and 5% CO2, 50 µL of peptides with different concentrations were added to achieve the final concentrations of solution of 100, 200, 400, 600, 800, and 1000 µg/mL (using complete medium as the control) for 24 h. Following treatment, the culture medium was removed, 100 µL of medium (without FBS) was added, and 10 µL of CCK-8 was then added to each well. The culture was incubated for 1 h at 37 ℃ and 5% CO2. Finally, the light absorption value at 450 nm was detected by the microplate reader. Relative cell viability was calculated according to Equation (3):(3) Cell viability%=(A − A0)/A1 − A0 × 100 where A1 is the absorbance of cells that are not treated with peptides, A is the absorbance of cells that are treated with peptides, and A0 is the absorbance of the group without cells in the medium.

[4] = tested on: EA.hy926 cells; test: Cell viability, CCK-8; type: cell-based, Human; conditions: 0–400 μg/mL, 24 h
Protocol: as §1, §2

[5] = tested on: pepsin and trypsin; test: Stability against simulated gastrointestinal digestion (pepsin, trypsin); type: in vitro ADME
Protocol: The simulated gastrointestinal digestion method was applied according to Li et al., with some modifications. In brief, pH 2.0 was adjusted for the VW-7 solution (ultrapure water, c = 0.4 mg/mL). The peptide solution was mixed with pepsin (2%, w/w) for 2 h at 37 °C. The pH was changed to 7.0 after the process, and half of the liquid was withdrawn. The other half was then given trypsin (2%, w/w) and digested at 37 °C for 2 h. Finally, the reaction was terminated by a boiling water bath, and the ACE inhibition rate of the two-step reaction products was measured.
RP-HPLC was used to analyze the liquid obtained after digestion. The mobile phase A was water containing 0.1% TFA, and the mobile phase B was 100% ACN containing 0.1% TFA. The flow rate was set to 1 mL/min, the detection wavelength was 214 nm, and the column temperature was 30 °C.

Compound: VASVI [reported antihypertensive peptide from Olive Flounder Surimi]
- production of NO in cells [1]: significantly increased

Compound: SAAVGSP
- type of ACE inhibition ([2]; peptides from sea cucumber): mixed-type inhibition

Compound: EVSQGRP
- type of ACE inhibition ([2]; peptides from sea cucumber): mixed-type inhibition

Compound: NMAINPSKENLCSTFCK
- type of ACE inhibition ([2]; peptide from casein): mixed-type inhibition

Compound: VSRHFASYAN
- type of ACE inhibition ([2]; peptides from sea cucumber): mixed-type inhibition

Compound: VDMF
- IC50 ([2]; peptide extracted from Coix prolamin): 382 µM

Compound: CC(C)C[C@H](NC(=O)[C@H](Cc1ccc(O)cc1)NC(=O)[C@H](CC(=O)O)NC(=O)[C@H](CC(N)=O)NC(=O)[C@@H](N)C(C)C)C(=O)N[C@@H](CC(N)=O)C(=O)N[C@@H](Cc1c[nH]c2ccccc12)C(=O)O [VNDYLNW] (H-VNDYLNW-OH)
- viability at 24 h, 600 µg/mL ([3]; 600 µg/mL, mean ± SD): 92.4 ± 2.4%
- viability at 24 h ([3]; concentration above 600 µg/mL (up to 1000 µg/mL)): < 80%
- toxic effect on EA.hy926 cells [4]: no toxic effect
- toxic effect on EA.hy926 cells ([4]; listed as VW-7): no cytotoxicity
- ACE inhibitory action after gastrointestinal digestion ([5]; 0.4 mg/mL in ultrapure water, pH 2.0 pepsin 2% w/w 2 h 37 °C, then pH 7.0 trypsin 2% w/w 2 h 37 °C, read-out ACE inhibition rate, p > 0.05): remained essentially unaltered
- RP-HPLC peak area after two-step digestion ([5]; 0.4 mg/mL, pepsin pH 2.0 2 h then trypsin pH 7.0 2 h, 37 °C, RP-HPLC, UV 214 nm): did not change

Compound: VTPVGVPKW
- IC50 ([2]; peptide extracted from Black Cumin seeds): 1.8 µM
